Values of other authors in US11660375B2, “Product and method for the treatment of bioprosthetic tissues” (Epygon, priority 2017, dated 2023).
Like-named read-outs stand apart in the source and are kept apart here.

Legend:
[1] = tested on: pericardium samples pretreated with 0.6% Glutaraldehyde; conditions: after 6 months implantation, juvenile rats, subcutaneous
[2] = oral administration; IPCS, WHO Food Additives Series 32
[3] = tested on: porcine aortic valve cusps; conditions: rat subdermal, 60 days, pretreatment pH 7.4 for 24 hours
[4] = tested on: Porcine aortic valve bioprostheses; conditions: sheep, 150 days, leaflet calcium
[5] = at 25° C.

CCCCCCCC/C=C\CCCCCCCC(=O)OCCOCC(OCCO)C1OCC(OCCO)C1OCCO (stereo not drawn) [surfactant, Tween 80]
calcium content [1]: 42.9±12.7 μg/mg dry tissue

OC[C@H]1O[C@@H]2O[C@H]3[C@H](O)[C@@H](O)[C@@H](O[C@H]4[C@H](O)[C@@H](O)[C@@H](O[C@H]5[C@H](O)[C@@H](O)[C@@H](O[C@H]6[C@H](O)[C@@H](O)[C@@H](O[C@H]7[C@H](O)[C@@H](O)[C@@H](O[C@H]8[C@H](O)[C@@H](O)[C@@H](O[C@H]1[C@H](O)[C@H]2O)O[C@@H]8CO)O[C@@H]7CO)O[C@@H]6CO)O[C@@H]5CO)O[C@@H]4CO)O[C@@H]3CO [β-Cyclodextrin]
acceptable daily intake [2]: 5 mg/kg of body weight
toxicity on parenteral administration: nephrotoxic

OC[C@H]1O[C@@H]2O[C@H]3[C@H](O)[C@@H](O)[C@@H](O[C@H]4[C@H](O)[C@@H](O)[C@@H](O[C@H]5[C@H](O)[C@@H](O)[C@@H](O[C@H]6[C@H](O)[C@@H](O)[C@@H](O[C@H]7[C@H](O)[C@@H](O)[C@@H](O[C@H]1[C@H](O)[C@H]2O)O[C@@H]7CO)O[C@@H]6CO)O[C@@H]5CO)O[C@@H]4CO)O[C@@H]3CO [α-Cyclodextrins, α-Cyclodextrin]
toxicity on parenteral administration: don't show any toxicity

2-hydroxypropyl β-Cyclodextrin [HP p-CD]
toxicity on parenteral administration: don't show any toxicity
toxicity on parenteral administration (listed as 2-hydroxypropyl β-Cyclodextrin): appear to be safe

Sulphated β-Cyclodextrin
toxicity on parenteral administration: appear to be safe

CCO [Ethanol]
Ca (porcine aortic cusps): 13.3+/−5.6 μg/mg tissue

CCO [80% Ethanol, Ethanol]
calcium level ([3]; listed as 80.0% Ethanol): 1.87±0.29 μg/mg tissue
Ca [4]: 5.22 ± 2.94

CCO [60% Ethanol, Ethanol]
calcium level ([3]; listed as 60.0% Ethanol): 28.5±12.0 μg/mg tissue

OC[C@H]1O[C@@H]2O[C@H]3[C@H](O)[C@@H](O)[C@@H](O[C@H]4[C@H](O)[C@@H](O)[C@@H](O[C@H]5[C@H](O)[C@@H](O)[C@@H](O[C@H]6[C@H](O)[C@@H](O)[C@@H](O[C@H]7[C@H](O)[C@@H](O)[C@@H](O[C@H]8[C@H](O)[C@@H](O)[C@@H](O[C@H]9[C@H](O)[C@@H](O)[C@@H](O[C@H]1[C@H](O)[C@H]2O)O[C@@H]9CO)O[C@@H]8CO)O[C@@H]7CO)O[C@@H]6CO)O[C@@H]5CO)O[C@@H]4CO)O[C@@H]3CO [γ-Cyclodextrin]
toxicity on parenteral administration: appear to be safe

Sulfobutyl Ether7 β-Cyclodextrin [SBE7 β-CD]
toxicity on parenteral administration: appear to be safe
water solubility [5]: ~70 g/100 ml

OC[C@H]1O[C@H](O[C@H]2[C@H](O)[C@@H](O)[C@@H](OC[C@H]3O[C@@H]4O[C@H]5[C@H](O)[C@@H](O)[C@@H](O[C@H]6[C@H](O)[C@@H](O)[C@@H](O[C@H]7[C@H](O)[C@@H](O)C(O[C@H]8[C@H](O)[C@@H](O)[C@@H](O[C@H]9[C@H](O)[C@@H](O)[C@@H](O[C@H]%10[C@H](O)[C@@H](O)[C@@H](O[C@H]3[C@H](O)[C@H]4O)O[C@@H]%10CO)O[C@@H]9CO)O[C@@H]8CO)O[C@@H]7CO)O[C@@H]6CO)O[C@@H]5CO)O[C@@H]2CO)[C@H](O)[C@@H](O)[C@@H]1O [Maltosyl β-Cyclodextrin]
toxicity on parenteral administration: appear to be safe
